From patent US12194080B2, “Methods for identification, assessment, prevention, and treatment of metabolic disorders using PM20D1 and N-lipidated amino acids” (Dana-Farber Cancer Institute, Inc., priority 2015, dated 2025)

Tests used:
[1] = system: primary inguinal fat cells, primary BAT cells, C2C12 cells, and U2OS cells; assay: Uncoupled respiration cellular assays (variety of cell types); type: cell-based; settings: N-acyl amino acids at 10-100 uM
Procedure: (§1) Cellular oxygen consumption rates were determined using an XF24 Extracellular Flux Analyzer (Seahorse Biosciences). Oligomycin was purchased from EMD Millipore, and FCCP and rotenone were purchased from Sigma. C2C12 or U2OS cells were seeded at 30,000 or 50,000 cells/well, respectively in an XF24 cell culture microplate (V7-PS, Seahorse Bioscience) and analyzed the following day. Primary iWAT or BAT adipocytes were seeded at 15,000 cells/well, differentiation was induced the following day as described, and the cells were analyzed on day 5. On the day of analysis, the cells were washed once with Seahorse respiration buffer (8.3 g/1 DMEM, 1.8 g/l NaCl, 1 mM pyruvate, 20 mM glucose, pen/strep), placed in 0.5 ml Seahorse respiration buffer, and incubated in a CO2-free incubator for 1 hr. Port injection solutions were prepared as follows (final concentrations in assay in parentheses): 10 μM oligomycin (1 μM final), […] amino acid (50 μM final), 2 μM FCCP (0.2 μM final), and 30 μM rotenone (3 μM final). The Seahorse program was run as follows: basal measurement, 3 cycles; inject port A (oligomycin), 3 cycles; inject port B (compounds), 8 cycles; inject port C (FCCP), 3 cycles; inject port D (rotenone), 3 cycles. Each cycle consisted of mix 4 min, wait 0 min, and measure 2 min. For data expressed as a percentage of oligomycin-treated basal, the respiration at cycle 6 was normalized to 100%, and the maximum respiration at any time point between cycles 7 and 15 inclusive was used.

U2OS cells = assay: Cellular oxygen consumption rate (uncoupled respiration), U2OS cells; type: cell-based, human; settings: 50 μM, after oligomycin 1 μM
Procedure: (§2) C2C12, U2O5, and 293A cells were cultured in DMEM with 10% FBS and pen/strep. Primary inguinal (iWAT) and brown (BAT) adipocytes were obtained as follows. The stromal-vascular fraction of inguinal (iWAT) pad from 4-12 week old male mice was dissected, minced, and digested for 45 min. at 37° C. in PBS containing 10 mM CaCl2, 2.4 U/ml dispase II (Roche), and 1.5 U/ml collagenase D (Roche). The stromal-vascular fraction of brown fat (BAT) pads from newborn (P1-P14) pups was dissected, minced, and digested for 45 min at 37° C. in PBS containing 1.3 mM CaCl2, 120 mM NaCl, 5 mM KCl, 5 mM glucose, 100 mM HEPES, 4% BSA, and 1.5 mg/ml collagenase B (Roche). Digested tissue was diluted with adipocyte culture media (DMEM/F-12, GlutaMAX™ supplement, Life Technologies, with 10% FBS and pen/strep) and centrifuged (600×g for 10 min.). The pellet was resuspended in 10 ml adipocyte culture media, strained through a 40 μm filter, and plated. Differentiation was induced by application of an adipogenic cocktail containing 5 μg/ml insulin (Sigma), 5 μM dexamethasone (Sigma), 250 μM isobutylmethylxanthine (Sigma), and 1 μM rosiglitazone (Cayman) for 2 days. Two days after induction, cells were maintained in adipocyte culture media containing 5 μg/ml insulin and 1 μM rosiglitazone.
as §1

[2] = system: Diet induced obese (DIO) mice; assay: Chronic daily i.p. administration of N-acyl amino acids to DIO mice (body weight, food intake, body composition, GTT); type: in vivo, mouse; settings: for body weight lost: after 8 days treatment, mean±SEM
Procedure: (§3) Animal experiments were performed according to procedures approved by the Beth Israel Deaconess Medical Center IACUC. Mice were maintained in 12 h light-dark cycles at 22° C. and fed a standard irradiated rodent chow diet. All experiments on wild-type mice were performed with male C57BL/6 mice purchased from Jackson Laboratories, except for the AAV experiments, which were performed with male C57BL/6 mice from Charles River. UCP1-KO (stock #017476) and 16-20 week DIO mice (stock #380050) were obtained from Jackson Laboratories. For AAV injection experiments, mice were gently warmed using a 250 W clear infrared heat lamp, immobilized, and injected via tail vein with 10^10 virus/mouse (diluted in saline) in a total volume of 100 μl/mouse. Where indicated, mice were placed on high-fat diet (60% fat, Research Diets). For cold exposure experiments, mice were group housed and placed at 4° C. for the indicated times. For the preparation of C18:1-Phe for in vivo injections, compounds were dissolved in 18:1:1 v/v/v saline:Kolliphor® EL (Sigma Aldrich):DMSO and sonicated until homogeneous. Mice were administered compounds at 5 μl/g body weight at the indicated doses. For all injection experiments, mice were mock injected with saline daily for 3 days prior to the start of the experiments. For glucose tolerance tests (GTTs), mice received their final dose of compound the day prior to the assay and were then fasted overnight. Glucose was administered at 1.5 g/kg.
(§4) Energy expenditure, O2 consumption, CO2 production, respiratory exchange ratio, total locomotor activity, and food intake measurements were made with a 16-cage Columbus Instruments Oxymax Comprehensive Lab Animal Monitoring System (CLAMS) at ambient room temperature (21-23° C.). Mice were acclimated for one day in metabolic cages prior to data collection. Whole-body composition was assessed with an EchoMRI™ 3-in-1 on conscious mice.

mouse PM20D1 = molecular target: T1, mouse PM20D1 (Mus musculus, UniProt Q8C165); assay: In vitro PM20D1-catalyzed synthesis of N-acyl amino acids; type: biochemical; settings: head group 100 μM; oleate or arachidonate 1.5 mM, C18:1-CoA 0.7 mM
T1 construct: Full-length mouse Pm20d1 cDNA (GE Dharmacon) was subcloned with an in-frame C-terminal 6× His and FLAG® tag; made in house; host or cells: 293A (HEK293A) cells stably infected with retrovirus
T1 sequence (Q8C165 25-503): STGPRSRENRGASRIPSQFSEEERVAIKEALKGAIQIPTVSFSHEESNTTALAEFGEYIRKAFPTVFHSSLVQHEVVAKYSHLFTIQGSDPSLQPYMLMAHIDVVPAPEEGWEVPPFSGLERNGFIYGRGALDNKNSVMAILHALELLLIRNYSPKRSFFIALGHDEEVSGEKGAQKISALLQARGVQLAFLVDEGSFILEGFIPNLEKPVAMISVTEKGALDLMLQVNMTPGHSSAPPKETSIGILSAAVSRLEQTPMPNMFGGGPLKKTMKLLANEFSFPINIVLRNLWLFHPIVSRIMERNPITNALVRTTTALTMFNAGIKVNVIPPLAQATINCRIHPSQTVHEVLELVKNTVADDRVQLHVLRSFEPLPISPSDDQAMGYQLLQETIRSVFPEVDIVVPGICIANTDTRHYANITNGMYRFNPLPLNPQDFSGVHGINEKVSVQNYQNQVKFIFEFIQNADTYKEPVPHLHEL
Procedure: The concentrated media was centrifuged to remove debris (600×g, 10 min, 4° C.) and the supernatant containing PM20D1-flag was decanted into a new tube. PM20D1-Flag was immunoaffinity purified overnight at 4° C. from the concentrated media using magnetic Flag-M2 beads (Sigma Aldrich). The beads were collected, washed three times in PBS, eluted with 3× Flag peptide ([…] in PBS, Sigma Aldrich), aliquoted, and stored at −80° C. For the purification of human PM20D1-flag, hPM20D1-flag plasmid (Origene) was transiently transfected into 293A cells. After two days, the media was changed, harvested 24 h later, concentrated, and purified exactly as described above.
In vitro PM20D1-catalyzed synthesis of N-acyl amino acids was measured by incubating purified PM20D1 protein with oleate (1.5 mM) and phenylalanine (0.1 mM) in PBS (to 100 μl final volume) at 37° C. for 1.5 hrs. In vitro PM20D1-catalyzed N-acyl amino acid hydrolysis was measured by incubating purified PM20D1 protein with the indicated N-acyl amino acid (0.1 mM) in PBS (to 100 μl final volume) at 37° C. for 1.5 hrs. Reactions were terminated by placing the vials at −80° C. and the products generated in vitro were analyzed by mass spectroscopy (MS).
Briefly, frozen serum (30 μl) for polar metabolomic analyses were extracted in 160 μl of 1:1 acetonitrile/methanol with inclusion of internal standard D3, ^15N-serine (1 nmol). Activity assays (100 μl) were extracted in 400 μl 1:1 acetonitrile/methanol. Following 30 s of thorough vortexing and 1 min of bath sonication, the polar metabolite fraction (supernatant) was isolated by centrifugation at 13,000×g for 10 min. Ten μl of this supernatant was analyzed by SRM-based targeted LC-MS/MS, or untargeted LC-MS.
For separation of polar metabolites, normal-phase chromatography was performed with a […] column (50 mm×4.60 mm, Phenomenex). Mobile phases were as follows: Buffer A, acetonitrile; Buffer B, 95:5 water/acetonitrile with 0.1% formic acid or 0.2% ammonium hydroxide with 50 mM ammonium acetate for positive and negative ionization mode, respectively. The flow rate for each run started at 0.2 ml/min for 2 min, followed by a gradient starting at 0% B and increasing linearly to 100% B over the course of 15 min with a flow rate of 0.7 ml/min, followed by an isocratic gradient of 100% B for 10 min at 0.7 ml/min before equilibrating for 5 min at 0% B with a flow rate of 0.7 ml/min. MS analysis was performed with an electrospray ionization (ESI) source on an Agilent 6430 QQQ LC—MS/MS. The capillary voltage was set to 3.5 kV, and the fragmentor voltage was set to 100 V. The drying gas temperature was 325° C., the drying gas flow rate was 10 l/min, and the nebulizer pressure was 45 psi. For polar targeted and untargeted metabolomic analysis, representative metabolites were quantified by SRM of the transition from precursor to product ions (corresponding to amino acid fragment) at associated collision energies. Several representative fragmentation ions are as follows: C18:1-Ala, 352>88; C18:1-Gly, 338>74; C18:1-Phe, 428>164; C18:1-Leu/Ile, 394>130; C20:4-Phe, 450>164; C20:4-Leu/Ile, 416>130. Untargeted LC-MS was performed by scanning a mass range of m/z 50-1200, and data were exported as mzdata files and uploaded to XCMSOnline (xcmsserver.nutr.berkeley.edu) to identify metabolites that were differentially changed. For targeted metabolomics analysis, metabolites were quantified by integrating the area under the peak and were normalized to internal standard values corresponding to 1 nmol D3, ^15N-serine.

C2C12 cells = assay: Cellular oxygen consumption rate (uncoupled respiration), C2C12 cells; type: cell-based, mouse; settings: 50 μM, after oligomycin 1 μM
Procedure: as §2, §1

[3] = system: Diet induced obese (DIO) mice; assay: Indirect calorimetry (CLAMS) of high fat diet/DIO mice treated with N-acyl amino acids; type: in vivo, mouse
Procedure: as §3, §4

[4] = system: differentiated primary iWAT cells; assay: Cellular oxygen consumption rate (Seahorse XF24), differentiated primary iWAT adipocytes; type: cell-based, mouse; settings: 50 μM, in presence of oligomycin; control fatty acid
Procedure: as §2, §1

[5] = daily i.p.: C18:1-Leu 25, C18:1-Phe 30, C20:4-Gly 15 mg/kg/day

SMILES: CCCCCCCCCCCCCCCCCC(=O)N[C@@H](Cc1ccccc1)C(=O)O [N-stearoyl phenylalanine, Stearoyl-L-phenylalanine]
- uncoupled respiration in cells [1]: increased uncoupled respiration
- uncoupling activity (uncoupled respiration) (U2OS cells): possessed uncoupling activity

SMILES: CCCCCCCCCCCC(=O)N[C@@H](Cc1ccccc1)C(=O)O [N-lauroyl phenylalanine, Dodecanoyl-L-phenylalanine]
- uncoupled respiration in cells [1]: inactive
- uncoupling activity (uncoupled respiration) (U2OS cells): completely lacked uncoupling activity

SMILES: CCCCCCCCCCCCCCCC(=O)N[C@@H](Cc1ccccc1)C(=O)O [N-palmitoyl phenylalanine, Palmitoyl-L-phenylalanine]
- uncoupled respiration in cells [1]: increased uncoupled respiration
- uncoupling activity (uncoupled respiration) (U2OS cells): possessed uncoupling activity

SMILES: CCCCCCCCCCCCCCCCCCCC(=O)N[C@@H](Cc1ccccc1)C(=O)O [N-arachidoyl phenylalanine, Icosanoyl-L-phenylalanine]
- uncoupled respiration in cells [1]: inactive
- uncoupling activity (uncoupled respiration) (U2OS cells): completely lacked uncoupling activity

SMILES: CCCCCCCC/C=C\CCCCCCCC(=O)[O-].[Na+] [oleate, sodium oleate, reference compound]
- body weight lost ([2]; 25 mg/kg, i.p., daily): 0.3 ± 0.2 g
- uncoupled respiration in cells [1]: inactive
- substrate of the PM20D1 synthase reaction (mouse PM20D1): strong preference for free oleate over oleoyl-coenzyme A

SMILES: CCCCCCCC/C=C\CCCCCCCC(=O)N[C@@H](CC(C)C)C(=O)O [C18:1-Leu, Oleoyl-L-leucine]
- uncoupling activity (uncoupled respiration) (C2C12 cells): significantly more potent than the free fatty acid alone
- reduction of food intake versus vehicle-treated mice ([2]; 25 mg/kg, i.p., daily): 17%
- body weight lost ([2]; 25 mg/kg, i.p., daily): 4.1 ± 0.3 g
- body composition analysis (weight loss) ([2]; 25 mg/kg/day i.p., MRI): entirely accounted for by a difference in fat mass
- GTT ([2]; 25 mg/kg/day i.p., glucose 1.5 g/kg, versus vehicle- or oleate-treated mice): improvements
- RER ([3]; C18:1-Leu 25 mg/kg/day i.p.): significantly lower
- VCO2 ([3]; C18:1-Leu 25 mg/kg/day i.p.): significantly augmented
- food intake over the final two days of the experiment ([3]; C18:1-Leu 25 mg/kg/day i.p., metabolic cages): reduced food intake
- VO2 [3, 5]: significantly augmented
- movement [3, 5]: slightly reduced

SMILES: CCCCC/C=C\C/C=C\C/C=C\C/C=C\CCCC(=O)O [arachidonate, arachidonic acid, reference compound]
- oxygen consumption rate [4]: increased the oxygen consumption rate very modestly
- substrate of the PM20D1 synthase reaction (mouse PM20D1): capable of using arachidonate as a fatty acid donor
